“And” between values parts separate entries of the source, which are not always exact repeats. Equal entries are not always repeated.

The values below come from article PMC11088557 (Clinical Drug Investigation, 2024).

The conditions of data set [1]: combination vs MCC alone.
Another data set has as its system CYP3A4. The following applies: cited from earlier work.
For data set [2] the following is noted: cited from earlier work.
For data set [3] the following is noted: viloxazine ER 900 mg/day from Day 3; Day 4; p values > 0.05.
The test system of the next data set is CYP2D6. To be noted: cited from earlier work.
The subject of another data set is CYP2C8. The following applies: in vitro study; cited from earlier work.
For data set [4] the following is noted: cited from earlier work. This is another data set of the same source.
The next data set concerns CYP2C9. The following applies: in vitro study; cited from earlier work.
The conditions of data set [5]: viloxazine ER 900 mg qd, steady state.
The next data set has as its system CYP2B6. The following applies: published in vitro study; cited from earlier work.
A further data set relates to CYP1A2. The following applies: cited from earlier work.
Another data set relates to CYP2C19. To be noted: in vitro study; cited from earlier work.

As to `COc1ccc2c(c1)[C@]13CCCC[C@@H]1[C@H](C2)N(C)CC3` [Dextromethorphan, dextromethorphan], the “prolongation of median Tmax with viloxazine ER vs MCC alone” value in data set [1] is listed as 1 h.

With `CCOc1ccccc1OCC1CNCCO1` (stereo not shown) [viloxazine], the ki in the data set with CYP3A4 (in vitro, [midazolam]) is 26.8 µg/mL. Besides, in the data set with CYP3A4 (published in vitro study), the “in vitro inhibition of CYP3A4/5” value is “weak inhibitor”. Moreover, in [2], the “5-hydoxyviloxazine metabolites, share of the metabolized fraction of the drug” value is on record as “about 50%” and the dose excreted unchanged result is “approximately 22%”. The “attainment of steady state” value in data set [3] is reported as “second day of dosing”. Besides, in the data set on CYP2D6 (in vitro, [dextromethorphan]), the ki was 12.7 µg/mL. The “in vitro inhibition of CYP2D6” value with CYP2D6 (published in vitro study) is “weak inhibitor”. For the same compound, in the data set on CYP2C8, the “in vitro inhibition of CYP2C8” value is “no meaningful inhibition”. In [4], the “change in Cmax when coadministered with paroxetine” value is given as “no changes” and the “increase in AUC when coadministered with paroxetine” value is recorded as less than 35%. Besides, in the data set with CYP2C9, the “in vitro inhibition of CYP2C9” value is listed as “no meaningful inhibition”. Moreover, in data set [5], the “AUC24 higher in CYP2D6 PMs than EMs” value was 26% and 25%; the “Cmax higher in CYP2D6 PMs than EMs” value came out at 21%; the “Cmin higher in CYP2D6 PMs than EMs” value turned out to be 33%. The “in vitro inhibition of CYP2B6” value in the data set with CYP2B6 was “weak inhibitor”. In the data set with CYP1A2 (in vitro, [caffeine]), the ki is 0.124 µg/mL. In the data set with CYP1A2 (published in vitro study), the “in vitro inhibition of CYP1A2” value is on record as “strong, reversible inhibitor”. The “in vitro inhibition of CYP2C19” value with CYP2C19 was “no meaningful inhibition”.
